Read-outs that look alike come from different tables or passages of the source.
Key:
[1] = system: HCV replicon; assay: HCV replicon FRET assay; assay type: cell-based; conditions: Hepatitis C virus
Description: FRET Assay Preparation. To perform the HCV FRET screening assay, 96-well cell culture plates were used. The FRET peptide (Anaspec, Inc.) (Taliani et al., Anal. Biochem. 1996, 240, 60-67) contains a fluorescence donor, EDANS, near one end of the peptide and an acceptor, DABCYL, near the other end. The fluorescence of the peptide is quenched by […] resonance energy transfer (RET) between the donor and the acceptor, but as the NS3 protease cleaves the peptide the products are released from RET quenching and the fluorescence of the donor becomes apparent. The assay reagent was made as follows: 5× cell Luciferase cell culture lysis reagent from Promega (#E153A) diluted to 1× with dH2O, NaCl added to 150 mM final, the FRET peptide diluted to 20 uM final from a 2 mM stock.
To prepare plates, HCV replicon cells, with or without a Renilla luciferase reporter gene, were trypsinized and placed into each well of a 96-well plate with titrated test compounds added in columns 3 through 12; columns 1 and 2 contained a control compound (HCV protease inhibitor), and the bottom row contained cells without compound. The plates were then placed in a CO2 incubator at 37° C.
Assays. Subsequent to addition of the test compounds described above (FRET Assay Preparation), at various times the plate was removed and Alamar blue solution (Trek Diagnostics, #00-100) was added per well as a measure of cellular toxicity. After reading in a Cytoflour 4000 instrument (PE Biosystems), plates were rinsed with PBS and then used for FRET assay by the addition of 30 ul of the FRET peptide assay reagent described above (FRET Assay Preparation) per well. The plate was then placed into the Cytoflour 4000 instrument which had been set to 340 excite/490 emission, automatic mode for 20 cycles and the plate read in a kinetic mode. Typically, the signal to noise using an endpoint analysis after the reads was at least three-fold. Alternatively, after Alamar blue reading, plates were rinsed with PBS, 50 ul of DMEM (high glucose) without phenol red was added and plates were then used for luciferase assay using the Promega Dual-Glo Luciferase Assay System.
Compound analysis was determined by quantification of the relative HCV replicon inhibition and the relative cytotoxicity values. To calculate cytoxicity values, the average Alamar Blue fluorescence signals from the control wells were set as 100% non-toxic. The individual signals in each of the compound test wells were then divided by the average control signal and multiplied by 100% to determine […]. To calculate the HCV replicon inhibition values, an average background value was obtained from the two wells containing the highest amount of HCV protease inhibitor at the end of the assay period. These numbers were similar to those obtained from naïve Huh-7 cells.
The background numbers were then subtracted from the average signal obtained from the control wells and this number was used as 100% activity. The individual signals in each of the compound test wells were then divided by the averaged control values after background subtraction and multiplied by 100% to determine percent activity. EC50 values for a protease inhibitor titration were calculated as the concentration which caused a 50% reduction in FRET or luciferase activity. The two numbers generated for the compound plate, percent cytoxicity and percent activity were used to determine compounds of interest for further analysis.

[2] = target: T1, HCV NS5B (Hepatitis C virus genotype 1b, UniProt Q9WMX2); assay: HCV NS5B RdRp enzyme assay (preincubation protocol); assay type: biochemical; conditions: Table 1, read-out: IC50*
T1 construct: The protein was expressed with an 18 amino acid C-terminal truncation to enhance the solubility; made in house; host or cells: E. coli BL21 (DE3), pET21a
T1 sequence (Q9WMX2 2420-2992): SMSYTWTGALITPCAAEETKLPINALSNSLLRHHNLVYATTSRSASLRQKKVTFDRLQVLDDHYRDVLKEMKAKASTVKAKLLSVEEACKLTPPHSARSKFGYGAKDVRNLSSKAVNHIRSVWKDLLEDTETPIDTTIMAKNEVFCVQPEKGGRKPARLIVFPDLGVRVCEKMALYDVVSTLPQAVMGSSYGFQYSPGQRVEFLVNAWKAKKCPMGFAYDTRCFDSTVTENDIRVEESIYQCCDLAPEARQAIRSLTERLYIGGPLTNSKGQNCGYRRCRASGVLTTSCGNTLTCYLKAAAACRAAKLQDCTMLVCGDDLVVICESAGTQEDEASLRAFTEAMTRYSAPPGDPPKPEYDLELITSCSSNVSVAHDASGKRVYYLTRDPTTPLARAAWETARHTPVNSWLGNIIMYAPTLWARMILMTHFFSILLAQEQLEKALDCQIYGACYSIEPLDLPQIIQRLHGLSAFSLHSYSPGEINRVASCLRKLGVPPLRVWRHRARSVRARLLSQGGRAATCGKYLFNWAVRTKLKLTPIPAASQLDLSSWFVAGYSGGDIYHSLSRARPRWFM
Method in brief: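 C-terminally truncated (Δ18) genotype 1b NS5B from E. coli, 14 nM, added to compound, then polyA template (0.2 nM), 3H-UTP (0.29 μM) and oligo-dT12 primer precaptured on streptavidin SPA beads. 4 h at 30 °C, pH 7.5, 2% DMSO; SPA readout; IC50 from seven concentrations by logistic fit.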

[3] = Table 1, FRET assay, read-out: EC50*

SMILES: O=C(O)c1ccc2c(C3CCCCC3)c3n(c2c1)CC(C(=O)N1CCN(c2ncccn2)CC1)=Cc1ccccc1-3
- EC50 [1, 3]: 0.07 to 1 µM
- IC50 [2]: 0.01 to 1 µM

SMILES: CN(C)S(=O)(=O)NC(=O)c1ccc2c(C3CCCCC3)c3n(c2c1)CC(C(=O)N1CCN(c2ncccn2)CC1)=Cc1ccccc1-3
- EC50 [1, 3]: 0.07 to 1 µM
- IC50 [2]: 0.01 to 1 µM

SMILES: CN(C)S(=O)(=O)NC(=O)c1ccc2c(C3CCCCC3)c3n(c2c1)CC(C(=O)N1CCN(C(=O)N2CCOCC2)CC1)=Cc1ccccc1-3
- EC50 [1, 3]: 0.07 to 1 µM
- IC50 [2]: 0.01 to 1 µM

SMILES: COC(=O)c1ccc2c(C3CCCCC3)c3n(c2c1)CC(NC(=O)N1C[C@@H](C)O[C@@H](C)C1)Cc1ccccc1-3 (stereo partly drawn)
- EC50 [1, 3]: > 0.12 µM
- IC50 [2]: > 1 µM

SMILES: CC(=O)N(C)C1CCN(C(=O)C2=Cc3ccccc3-c3c(C4CCCCC4)c4ccc(C(=O)NS(=O)(=O)N(C)C)cc4n3C2)C1 (stereo not drawn)
- EC50 [1, 3]: 0.07 to 1 µM
- IC50 [2]: 0.01 to 1 µM

SMILES: CN(C)C(=O)[C@@H]1CCCN1C(=O)C1=Cc2ccccc2-c2c(C3CCCCC3)c3ccc(C(=O)NS(=O)(=O)N(C)C)cc3n2C1
- EC50 [1, 3]: 0.07 to 1 µM
- IC50 [2]: 0.01 to 1 µM

SMILES: CN(C)S(=O)(=O)NC(=O)c1ccc2c(C3CCCCC3)c3n(c2c1)CC(C(=O)N1CCC(Oc2ncccn2)CC1)=Cc1ccccc1-3
- EC50 [1, 3]: 0.07 to 1 µM
- IC50 [2]: 0.01 to 1 µM

SMILES: CN(C)S(=O)(=O)NC(=O)c1ccc2c(C3CCCCC3)c3n(c2c1)CC(C(=O)N1CCOC(c2ccccc2)C1)=Cc1ccccc1-3 (stereo not drawn)
- EC50 [1, 3]: 1 to 10 µM
- IC50 [2]: 0.01 to 1 µM

SMILES: CN(C(=O)C1=Cc2ccccc2-c2c(C3CCCCC3)c3ccc(C(=O)NS(=O)(=O)N(C)C)cc3n2C1)C1CCS(=O)(=O)C1 (stereo not drawn)
- EC50 [1, 3]: 0.07 to 1 µM
- IC50 [2]: 0.01 to 1 µM

SMILES: CN(C)S(=O)(=O)NC(=O)c1ccc2c(C3CCCCC3)c3n(c2c1)CC(C(=O)N1CCS(=O)(=O)CC1)=Cc1ccccc1-3
- EC50 [1, 3]: 0.07 to 1 µM
- IC50 [2]: 0.01 to 1 µM

SMILES: COC(=O)c1ccc2c(C3CCCCC3)c3n(c2c1)CC(C(=O)N(C)NC(C)=O)=Cc1ccccc1-3
- EC50 [1, 3]: 1 to 10 µM
- IC50 [2]: > 1 µM

SMILES: CC(=O)NN(C)C(=O)C1=Cc2ccccc2-c2c(C3CCCCC3)c3ccc(C(=O)NS(=O)(=O)N(C)C)cc3n2C1
- EC50 [1, 3]: 0.07 to 1 µM
- IC50 [2]: 0.01 to 1 µM

SMILES: O=C(O)c1ccc2c(C3CCCCC3)c3n(c2c1)C[C@@H](NC(=O)N1CCOCC1)Cc1ccccc1-3
- EC50 [1, 3]: 0.07 to 1 µM
- IC50 [2]: 0.01 to 1 µM

SMILES: O=C(O)c1ccc2c(C3CCCCC3)c3n(c2c1)C[C@H](NC(=O)N1CCOCC1)Cc1ccccc1-3
- EC50 [1, 3]: 0.07 to 1 µM
- IC50 [2]: 0.01 to 1 µM

SMILES: COc1ccc2c(c1)C=C(C(=O)N(C)CC(=O)N(C)C)Cn1c-2c(C2CCCCC2)c2ccc(C(=O)O)cc21
- EC50 [1, 3]: 0.07 to 1 µM
- IC50 [2]: 0.01 to 1 µM

SMILES: C[C@@H]1CN(C(=O)NC2Cc3ccccc3-c3c(C4CCCCC4)c4ccc(C(=O)NS(=O)(=O)N(C)C)cc4n3C2)C[C@H](C)O1 (stereo partly drawn)
- EC50 [1, 3]: 0.07 to 1 µM
- IC50 [2]: 0.01 to 1 µM

SMILES: O=C(NC1Cc2ccccc2-c2c(C3CCCCC3)c3ccc(C(=O)O)cc3n2C1)OCc1ccccc1 (stereo not drawn)
- EC50 [1, 3]: 0.07 to 1 µM
- IC50 [2]: 0.01 to 1 µM

SMILES: COC(=O)c1ccc2c(C3CCCCC3)c3n(c2c1)CC(C(=O)N1CCC(N2CCOCC2)CC1)=Cc1ccccc1-3
- EC50 [1, 3]: 1 to 10 µM
- IC50 [2]: > 1 µM

SMILES: O=C(O)c1ccc2c(C3CCCCC3)c3n(c2c1)CC(C(=O)N1CCC(N2CCOCC2)CC1)=Cc1ccccc1-3
- EC50 [1, 3]: 0.07 to 1 µM
- IC50 [2]: 0.01 to 1 µM

SMILES: CN(C)S(=O)(=O)NC(=O)c1ccc2c(C3CCCCC3)c3n(c2c1)CC(C(=O)N1CCC(N2CCOCC2)CC1)=Cc1ccccc1-3
- EC50 [1, 3]: 0.07 to 1 µM
- IC50 [2]: 0.01 to 1 µM

SMILES: O=C(O)c1ccc2c(C3CCCCC3)c3n(c2c1)CC(C(=O)N1CCC(N2C(=O)Cc4ccccc42)CC1)=Cc1ccccc1-3
- EC50 [1]: 0.07 to 1 µM
- IC50 [2]: 0.01 to 1 µM

SMILES: O=C(O)c1ccc2c(C3CCCCC3)c3n(c2c1)CC(C(=O)N1CCC(C(=O)N2CCCC2)CC1)=Cc1ccccc1-3
- EC50 [1, 3]: 0.07 to 1 µM
- IC50 [2]: 0.01 to 1 µM

SMILES: O=C(O)c1ccc2c(C3CCCCC3)c3n(c2c1)CC(C(=O)N1CCC(N2CCCC2=O)CC1)=Cc1ccccc1-3
- EC50 [1, 3]: 0.07 to 1 µM
- IC50 [2]: 0.01 to 1 µM

SMILES: CN(C)S(=O)(=O)NC(=O)c1ccc2c(C3CCCCC3)c3n(c2c1)CC(C(=O)N1CCC(N2CCCC2=O)CC1)=Cc1ccccc1-3
- EC50 [1, 3]: 0.07 to 1 µM
- IC50 [2]: 0.01 to 1 µM

Source: patent publication US7473688B2, “Indolobenzazepine HCV NS5B inhibitors” (Bristol-Myers Squibb Company, priority 2005, dated 2009)
